These results are taken from PubChem BioAssay (NCI).

Test systems include OVCAR-4 ovarian; OVCAR-8 ovarian; DU-145 prostate; MDA-MB-435; NCI-H522 lung; NCI-H226 lung; SK-OV-3 ovarian; SF-539 CNS; A498 renal; BT-549 breast.
What all share (assay): NCI-60 cell line screen, 48 h

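Briefly, cells in 96-well plates were exposed to five compound concentrations for 48 h, and endpoints were estimated by linear interpolation. GI50 is the concentration that inhibits growth by half. TGI denotes the concentration required for complete inhibition of growth.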

Take `COc1cc2cc3c(c(O)c2c(O)c1-c1c(OC)cc2cc4c(c(O)c2c1O)C(=O)O[C@H](C)C4)C(=O)O[C@H](C)C3`: the GI50 was 22.4 µM in the assay on OVCAR-4 ovarian; 33.5 µM in the assay with OVCAR-8 ovarian; 15.9 µM in the assay with DU-145 prostate; 17.8 µM in the assay on MDA-MB-435; 44.3 µM in the assay with NCI-H522 lung; 32.7 µM in the assay with NCI-H226 lung. The GI50 in the assay on SK-OV-3 ovarian is 26.5 µM. Also, the TGI with OVCAR-4 ovarian is above 100 µM; in the assay on OVCAR-8 ovarian, above 100 µM; with DU-145 prostate, 31.2 µM; in the assay on MDA-MB-435, 33.8 µM; in the assay with NCI-H522 lung, above 100 µM; in the assay with NCI-H226 lung, above 100 µM. This compound also returned a TGI in the assay with SK-OV-3 ovarian of 84 µM.

For `O=C(/C(=C/c1ccc(O)cc1)c1ccccc1)c1ccccc1`, the TGI in the assay with OVCAR-4 ovarian was determined as 55.2 µM; in the assay on OVCAR-8 ovarian it was 60 µM; in the assay with NCI-H522 lung, 28.7 µM; with SF-539 CNS, 30.3 µM; in the assay on NCI-H226 lung it was 30.8 µM; in the assay on A498 renal, 32 µM. Further, the TGI with SK-OV-3 ovarian turned out to be 40.2 µM.

Turning to `[Cl-].[Gd+3].[O-]/N=C(\c1ccccc1)c1ccccn1.[O-]/N=C(\c1ccccc1)c1ccccn1.[O-]/N=C(\c1ccccc1)c1ccccn1`, the GI50 is 43.7 µM in the assay on OVCAR-4 ovarian; 34.3 µM in the assay with OVCAR-8 ovarian; 40.4 µM in the assay with NCI-H522 lung; above 100 µM with SF-539 CNS; 40.4 µM in the assay on NCI-H226 lung; above 100 µM in the assay on A498 renal. In addition, the GI50 in the assay with SK-OV-3 ovarian was 48 µM. Also, the TGI with OVCAR-4 ovarian, in the assay with OVCAR-8 ovarian, in the assay on NCI-H522 lung, in the assay on SF-539 CNS, in the assay with NCI-H226 lung and in the assay on A498 renal was above 100 µM in each case. In the assay on SK-OV-3 ovarian, the TGI was above 100 µM.

On to `COC(=O)c1sc(=NC(=S)N2CCCCC2)sc1C(=O)OC`, for which the TGI in the assay on OVCAR-4 ovarian, with OVCAR-8 ovarian, in the assay with SF-539 CNS, in the assay with NCI-H226 lung, with A498 renal and in the assay on SK-OV-3 ovarian was above 100 µM in each case.

With `COC(=O)C1CCC(=O)N1/C(C)=N/NC(=O)Nc1ccc(Cl)c(Cl)c1` (configuration not stated), the TGI with OVCAR-4 ovarian, in the assay with OVCAR-8 ovarian, in the assay with SF-539 CNS, in the assay on A498 renal and in the assay with SK-OV-3 ovarian was above 100 µM in each case.

Regarding `O=C(N/N=C/c1ccc(F)cc1)c1ccc(C(F)(F)F)nc1Nc1cccc(C(F)(F)F)c1`, the GI50 in the assay with OVCAR-4 ovarian is 0.339 µM; with OVCAR-8 ovarian, 1.7 µM; in the assay with DU-145 prostate it was 0.444 µM; in the assay with MDA-MB-435, 2.66 µM; in the assay on NCI-H522 lung, 1.61 µM; in the assay on SF-539 CNS it was 1.82 µM. In addition, the GI50 in the assay on NCI-H226 lung was 1.26 µM; in the assay on A498 renal it was 1.59 µM; with SK-OV-3 ovarian, 1.17 µM. Besides, the TGI came to 6.55 µM with OVCAR-4 ovarian; 6.62 µM in the assay with OVCAR-8 ovarian; 1.88 µM with DU-145 prostate; 10 µM in the assay with MDA-MB-435; 4.54 µM with NCI-H522 lung; 4.87 µM with SF-539 CNS. The TGI in the assay on NCI-H226 lung was 4.17 µM; in the assay on A498 renal, 4.65 µM; in the assay on SK-OV-3 ovarian, 4.56 µM.

On to `c1ccc2c3c([nH]c2c1)C1C2CCCCN2C(c2ccncc2)N1CC3` (configuration not stated), for which the TGI in the assay on OVCAR-4 ovarian, with OVCAR-8 ovarian, with NCI-H522 lung, in the assay on SF-539 CNS and in the assay on SK-OV-3 ovarian was above 100 µM throughout.

Turning to `COC(=O)CC1CC2(C(=O)OC)c3[nH]c4ccccc4c3CCN2C1=O` (configuration not stated), the TGI with OVCAR-4 ovarian, in the assay on OVCAR-8 ovarian, in the assay on NCI-H522 lung, in the assay on SF-539 CNS, with NCI-H226 lung and in the assay with A498 renal was above 100 µM in each case. The TGI in the assay on SK-OV-3 ovarian was above 100 µM.

For `O=c1cccccc1[O-].O=c1cccccc1[O-].O=c1cccccc1[O-].[Sm+3]`, the TGI in the assay on OVCAR-4 ovarian, in the assay with OVCAR-8 ovarian, with NCI-H522 lung, in the assay with SF-539 CNS, in the assay with NCI-H226 lung and in the assay with A498 renal was above 100 µM in each case. In the assay on SK-OV-3 ovarian, this compound showed a TGI above 100 µM. Moreover, the GI50 in the assay with SF-539 CNS was 29.1 µM; in the assay with A498 renal it was 87.5 µM.

For the compound `N/C(=N\C(N)=N\c1nc2ccccc2s1)c1cnccn1`, the GI50 in the assay with OVCAR-4 ovarian is 3.38 µM; in the assay on BT-549 breast, 3.97 µM; with OVCAR-8 ovarian, 3.11 µM; in the assay on DU-145 prostate, 4.34 µM; in the assay with NCI-H522 lung it was 2.16 µM; in the assay on SF-539 CNS, 2.07 µM. For the same compound, the results for the GI50 in the assay on NCI-H226 lung, in the assay on A498 renal and with SK-OV-3 ovarian were 2.45 µM, 1.45 µM and 1.84 µM, respectively. Moreover, the TGI in the assay with OVCAR-4 ovarian was above 100 µM; in the assay on BT-549 breast, 96 µM; with OVCAR-8 ovarian it was 26.5 µM; in the assay on DU-145 prostate, above 100 µM; in the assay with NCI-H522 lung, 6.16 µM; in the assay on SF-539 CNS, 4.12 µM. Moreover, the figures for the TGI in the assay with NCI-H226 lung, with A498 renal and in the assay with SK-OV-3 ovarian were 6.34 µM, 3.89 µM and 3.83 µM, respectively.

With `CC(=O)[O-].[Mn+3].[O-]c1ccc(Cl)cc1C=NCCN=Cc1cc(Cl)ccc1[O-]`, the GI50 is above 100 µM in the assay with OVCAR-4 ovarian; above 100 µM in the assay on OVCAR-8 ovarian; above 100 µM in the assay on NCI-H522 lung; 36 µM in the assay on SF-539 CNS; above 100 µM with NCI-H226 lung; above 100 µM in the assay with A498 renal. In addition, the GI50 with SK-OV-3 ovarian was above 100 µM. For the same compound, the TGI with OVCAR-4 ovarian is above 100 µM; in the assay with OVCAR-8 ovarian, above 100 µM; in the assay on NCI-H522 lung, above 100 µM; in the assay on SF-539 CNS, 74.3 µM; with NCI-H226 lung it was above 100 µM; in the assay on A498 renal, above 100 µM. The same compound yielded a TGI in the assay on SK-OV-3 ovarian above 100 µM.

Turning to `O=CC1=CCC2c3[nH]c4ccccc4c3CCN2C1` (configuration not stated), the TGI in the assay on OVCAR-8 ovarian was above 396 µM; in the assay on NCI-H522 lung it was above 396 µM; with SF-539 CNS it was above 396 µM; with NCI-H226 lung, 385 µM; in the assay on SK-OV-3 ovarian, above 396 µM.
